# Results reported in US20170151215A1, “USE OF ROTIGOTINE FOR TREATING THE RESTLESS LEG SYNDROME” (UCB PHARMA GMBH, priority 2002, published 2017).
# What was measured:
# [1] = test system: Restless Leg Syndrome (RLS); details: cited from earlier work; for effectiveness in RLS / side effects: short-term therapy studies; for side effects: usually in the beginning and as a function of the dosage
# [2] = test system: patients suffering from moderate to very severe idiopathic Restless Leg Syndrome; assay: placebo-controlled, double-blind, randomized clinical test of rotigotine TTS in Restless Leg Syndrome patients; assay type: in vivo, human; details: for Reduction of the average IRLSSG Value as compared to Placebo Treatment by Day 8: 8 days treatment
# Excerpt: The rotigotine TTS produced per one of the above implementation examples was investigated in placebo-controlled, double-blind, randomized clinical tests at several centers, covering in a study with triple-branched parallel groups 63 patients who were suffering from moderate to very severe idiopathic Restless Leg Syndrome conditions.
# The average age of the patients was 58.3 years. Randomization in the three treatment groups in terms of gender, age and severity of prior illnesses was reasonably balanced.
# Over a treatment period of eight (8) days the patients of one group were treated with 5 cm^2 TTS and the patients of another group were treated with 10 cm^2 TTS. For a comparison the patients in the placebo group were treated with a placebo TTS. Within 24 hours, each of the above-mentioned drug-containing TTS's released 2.25 mg and, respectively, 4.5 mg rotigotine to the patient concerned.
# As a result of the prespecified primary effectiveness the activities of daily life and the motoricity had changed, based on the generally accepted rating scale of the International Restless Leg Syndrome Study Group (IRLSSG), from the initial value to that in the concluding treatment evaluation (8th day).
# On the basis of 10 questions, the IRLSSG measures and rates the following clinical parameters in Restless Leg patients:
# The overall IRLSSG rating is derived from the individual values as follows:
# First, an initial starting value is determined for each patient participating in the study. This is done by adding up the individual IRLSSG parameter values as of Day 0, i.e. before the treatment. Over the course of the treatment the IRLSSG values are compared with the starting value and any changes from that starting value are recorded. Finally, the average improvement of the IRLSSG value as of Day 8 over the starting value is determined by calculating the average of all test subjects. The resulting value is called CAS—(complete analysis set) randomized average change from the starting value of the overall IRLSSG rating.
# Patients suffering from the Restless Leg Syndrome have been known to display a relatively strong response to placebos, meaning that even when treated with placebos these Restless Leg Syndrome patients show a certain improvement of their IRLSSG values. It is therefore important to compare any effect of the drug treatment with the degree of the IRLSSG improvement obtained through placebo treatment over the same time period. Thus, the final assessment of the improvement takes into account the effect of a placebo treatment during the same time period.
compound,measurement,setting,value
"N[C@@H](Cc1ccc(O)c(O)c1)C(=O)O [L-DOPA, levodopa]",effect on the disorder (RLS),[1]; long-term therapy,clear mitigation of the disorder
"Clc1cccc(Cl)c1NC1=NCCN1 [clonidine, 2-(2,6-dichloroanilino)-4,5-dihydroimidazol]",frequency of waking up,[1]; treatment of RLS,no effect
same,periodic leg movement during sleep (PLMS),[1]; treatment of RLS,no effect
same,quality of sleep,[1]; treatment of RLS,no effect
same,soporiferous latency,[1]; treatment of RLS,reduced
CCCN[C@H]1CCc2nc(N)sc2C1 [pramipexol],serious side effect,[1]; in vivo,Attacks of drowsiness
same,effectiveness in RLS,[1],effective
same,side effects,[1],"nausea, vomiting, dizziness, hypotension, constipation or insomnia"
CCCN1C[C@H](CSC)C[C@@H]2c3cccc4[nH]cc(c34)C[C@H]21 [pergolide],effectiveness in RLS,[1],effective
same,side effects,[1],"nausea, vomiting, dizziness, hypotension, constipation or insomnia"
CCN(CC)C(=O)N[C@H]1C=C2c3cccc4[nH]cc(c34)C[C@H]2N(C)C1 [lisuride],effectiveness in RLS,[1],effective
same,side effects,[1],"nausea, vomiting, dizziness, hypotension, constipation or insomnia"
"CCCN(CCc1cccs1)[C@H]1CCc2c(O)cccc2C1 [Rotigotine, (-)-5,6,7,8-tetrahydro-6-[propyl [2-(2-thienyl)ethyl]amino]-1-naphtol]",Reduction of the average IRLSSG Value as compared to Placebo Treatment by Day 8,"[2]; 5 cm^2 TTS, 2.25 mg rotigotine per 24 hours, p (one side) 0.09",3.6
same,Reduction of the average IRLSSG Value as compared to Placebo Treatment by Day 8,"[2]; 10 cm^2 TTS, 4.5 mg rotigotine per 24 hours, p (one side) 0.04",6.3
same,skin reactions at the point of application,[2]; administered via the TTS,generally very minor
same,tolerability,[2]; administered via the TTS,generally well tolerated
same,tolerability,"[2]; administered via the TTS, listed as rotigotine",well tolerated and safe
same,"subjective symptoms (tingling, cramps and pain in the legs, restlessness during the night, difficulties falling or remaining asleep)","[2]; end of the 8-day treatment, both patient groups (5 cm^2 and 10 cm^2 TTS)",either disappeared or diminished to a tolerable minimum
same,"daytime weariness, nausea, dizziness, vomiting, insomnia caused by the treatment","[2]; patient reports, as a function of the dose administered",did not or only to a very minimal extent cause
same,clinical improvement in patients in a moderate to severe stage of Restless Leg Syndrome,[2]; transdermally administered once daily,distinct clinical improvement
CC(C)C[C@H]1C(=O)N2CCC[C@H]2[C@]2(O)O[C@](NC(=O)[C@@H]3C=C4c5cccc6[nH]c(Br)c(c56)C[C@H]4N(C)C3)(C(C)C)C(=O)N12 [bromocriptine],side effects,[1],"nausea, vomiting, dizziness, hypotension, constipation or insomnia"
CC(C)C[C@H]1C(=O)N2CCC[C@H]2[C@]2(O)O[C@](NC(=O)[C@@H]3C[C@@H]4c5cccc6[nH]cc(c56)C[C@H]4N(C)C3)(C(C)C)C(=O)N12 [alpha dihydroergocryptine],effectiveness in RLS,[1],effective
same,side effects,[1],"nausea, vomiting, dizziness, hypotension, constipation or insomnia"
CCCN(CCC)CCc1cccc2c1CC(=O)N2 [ropinirol],effectiveness in RLS,[1],effective
same,side effects,[1],"nausea, vomiting, dizziness, hypotension, constipation or insomnia"
C=CCN1C[C@H](C(=O)N(CCCN(C)C)C(=O)NCC)C[C@@H]2c3cccc4[nH]cc(c34)C[C@H]21 [cabergolin],effectiveness in RLS,[1],effective
same,side effects,[1],"nausea, vomiting, dizziness, hypotension, constipation or insomnia"
